# Test results published in patent publication US20250134903A1, “COMPOSITIONS AND METHODS FOR TREATING PAIN” (priority 2023, published 2025).
# “Also recorded” adds a separate entry of the source.
# Assays:
# histamine H1-receptor = histamine H1-receptor (Homo sapiens, UniProt P35367); conditions: more potent; cited from earlier work
# [1] = 5% lidocaine plaster applied to skin; cited from earlier work
# mu-opioid receptors = mu-opioid receptors (Homo sapiens, UniProt P35372); conditions: cited from earlier work
# Sequence of mu-opioid receptors (P35372 whole entry): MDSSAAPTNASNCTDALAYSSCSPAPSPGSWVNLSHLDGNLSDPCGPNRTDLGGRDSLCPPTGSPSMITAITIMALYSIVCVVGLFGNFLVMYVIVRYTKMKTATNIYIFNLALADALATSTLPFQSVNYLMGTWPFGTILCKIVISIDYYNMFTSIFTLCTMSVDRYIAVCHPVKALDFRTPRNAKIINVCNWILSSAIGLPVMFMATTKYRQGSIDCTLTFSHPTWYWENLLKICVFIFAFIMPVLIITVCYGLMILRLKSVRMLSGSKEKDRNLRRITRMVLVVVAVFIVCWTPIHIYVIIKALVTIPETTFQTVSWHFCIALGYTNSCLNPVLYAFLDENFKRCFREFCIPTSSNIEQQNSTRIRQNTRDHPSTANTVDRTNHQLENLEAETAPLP
# classic TN = conditions: 100-400 mg/d; 8 patients with classic TN; cited from earlier work
# [2] = system: patients suffering from trigeminal neuralgia (TN); experiment: Non-randomized clinical observations of Trimeprazine in patients (n=7) with trigeminal neuralgia; format: in vivo, human; conditions: for overall efficacy on TN pain: seven TN patients, non-randomized
# Text: A middle-aged patient suffers from classic trigeminal (Type 1) neuralgia presenting with sharp, lancinating, severe pain in their left face precipitated by showering, eating, facial animation, touch of their facial skin and nose, and brushing their teeth. The episodes of pain are initiated by the stimuli above and immediately stop all other activity until they subside in several seconds. Their behavior is modified to avoid the stimuli above, even affecting how they speak and eats. […] Their daily activities are dominated by fear of inducing another attack.
# The patient began treatment with Trimeprazine 5 mg morning and evening.
# The disease had caused cutaneous anesthesia in the right forehead and cheek. […] Beginning at about 19 years after the bout of Lyme disease they noted sharp lightning-like pains in their right cheek. Brief and usually during cutaneous stimulation, like being in a shower. There were perhaps one or two of these occurrences per year. At 22 years after the initial Lyme disease, they experienced a severe attack of Trigeminal Neuralgia (TN) affecting their right cheek (Type 1). There were on average 8 bouts of severe stabbing pain per day precipitated by facial animation, touching, opening their mouth to eat, brushing their teeth, and even a gust of cold wind. They treated themself with doxycycline, fearing a reactivation of Lyme disease.
# They were quite miserable, being unable to even brush their teeth without precipitating a severe bout of pain.
# Patient is a person who suffers from TN which began 3 years ago after a dental procedure. The TN was manifest by sharp, lancinating pain in the left side of their jaw (Type. 1). These periods of pain were episodic, precipitated by stimuli like brushing their teeth, at least once per day, with periods of vulnerability lasting 3-4 weeks each occurring 3-4 times per year. Their parent had suffered with the same pattern of TN. When started on Trimeprazine they were also taking Pregabalin.
# Patient is a young person who developed severe ophthalmic herpes zoster involving the right side of their face and their right eye. They had extensive ocular involvement requiring medications for a full year. Their corneal difficulties were accompanied by a severe lingering neuralgia in the affected ophthalmic distribution of the trigeminal nerve (Type 2), which plagued their every waking hour. They were on 12 medications including carbamazepine 200 mg BID and pregabalin 150 mg TID, ophthalmic medications, and oxycodone as needed for pain relief.
# This patient suffered from shingles on their forehead which was followed by lingering neuralgia in the affected ophthalmic distribution of the trigeminal nerve.
# [3] = cited from earlier work
# TN [4] = conditions: 10 patients with TN; cited from earlier work
# TN [5] = conditions: 23 patients; add-on therapy; cited from earlier work
# PHN = conditions: in vivo; cited from earlier work
# PHN symptoms = conditions: human, in vivo; cited from earlier work
# [6] = system: post-herpetic neuralgia (PHN) pain; experiment: Applicant's clinical observations of Trimeprazine tartrate in post-herpetic neuralgia; format: in vivo, human; conditions: not a randomized clinical trial
# Text: While the clinical observations are not from a randomized clinical trial and could be subject to placebo effects and other confounders, they offer a promising finding for this devastating facial pain condition.
# [7] = Example 5, four months or so after
# Sequence of histamine H1-receptor (P35367 whole entry, species assumed): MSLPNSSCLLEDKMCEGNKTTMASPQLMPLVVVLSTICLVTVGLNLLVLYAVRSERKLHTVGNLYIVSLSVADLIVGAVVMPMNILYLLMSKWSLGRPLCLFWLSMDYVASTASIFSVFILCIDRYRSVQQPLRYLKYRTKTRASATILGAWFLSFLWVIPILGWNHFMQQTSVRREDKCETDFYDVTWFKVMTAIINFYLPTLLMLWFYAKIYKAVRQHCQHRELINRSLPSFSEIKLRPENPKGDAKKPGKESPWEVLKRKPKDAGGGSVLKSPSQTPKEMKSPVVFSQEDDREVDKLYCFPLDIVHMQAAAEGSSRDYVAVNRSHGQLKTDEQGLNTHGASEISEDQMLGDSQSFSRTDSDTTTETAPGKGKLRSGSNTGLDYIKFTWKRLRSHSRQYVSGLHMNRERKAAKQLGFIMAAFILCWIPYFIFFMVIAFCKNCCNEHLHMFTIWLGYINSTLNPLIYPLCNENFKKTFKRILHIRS
compound,measurement,setting,value
Cc1ccc(/C(=C\CN2CCCC2)c2ccccn2)cc1 [E-triprolidine],potency relative to Z-triprolidine,histamine H1-receptor,1000 fold
CCN(CC)CC(=O)Nc1c(C)cccc1C [Lidocaine],fraction of the drug reaching the systemic circulation,[1],3%
CC[C@@H](c1cccc(O)c1)[C@@H](C)CN(C)C [Tapentadol],times less potent than morphine in binding mu-opioid receptors,mu-opioid receptors,18 times
CC1(C)O[C@@H]2[C@@H](CO[C@@]3(COS(N)(=O)=O)OC(C)(C)O[C@@H]23)O1 [Topiramate],patients in whom found effective,classic TN,75%
CC(CN(C)C)CN1c2ccccc2Sc2ccccc21 (stereo not shown) [Trimeprazine],pain,"[2]; Example 1, TN Type 1, 5 mg morning and evening, after four days of medication",all pain was gone
same,intensity and frequency of the attacks,"[2]; Example 1, middle-aged male, TN Type 1, 5 mg morning and evening, second day of the course",in decline
same,side-effects,"[2]; Example 1, 5 mg",no side-effects other than drowsiness
same,later discomfort in face,"[2]; Example 1, ½ to 1 pill of 5 mg once or twice a day",successfully alleviated
same,recurring sharp pains,"[2]; Example 2, person, TN Type 1, recurrences at seven and eleven months after the TN attack, 5 mg twice a day",immediately stop all recurring pains
same,recurrent attacks of TN,"[2]; Example 2, in the 12 months since the last treatment",no recurrent attacks of TN
same,pain,"[2]; Example 3, elderly male, TN Type 1 uncontrolled with carbamazepine and gabapentin, 5 mg twice a day, by ten days after starting treatment",essentially pain free
same,duration of relief,"[2]; Example 3, 5 mg twice a day",enduring
same,tolerability,"[2]; Example 3, 5 mg twice a day","except for some drowsiness, tolerated the medicine well"
same,jaw pain,"[2]; Example 4, person, TN Type 1, also taking Pregabalin, after a first course of 10 days, 5 mg BID",jaw pain was gone
same,sensitive area on the side of head above ear,"[2]; Example 4, second course 5 mg BID for several days",disappeared entirely
same,improvement of neuralgia,"[2]; Example 5, young person, TN Type 2 after ophthalmic herpes zoster, by 5 days after starting the medication",some improvement
same,average pain (patient-reported),[2]; [7],2
same,max pain (patient-reported),[2]; [7],5
same,patient-reported relief of head pain,"[2]; Example 6, TN Type 2 after shingles, 5 mg BID, by 6 days after starting",it does help my head
same,Clinical Outcome,"[2]; Patient 1, TN Type 1","Relief, no additional"
same,Comment,"[2]; Patient 1, TN Type 1",Pain gone day 3
same,Clinical Outcome,"[2]; Patient 2, TN Type 1","Relief, no additional"
same,Comment,"[2]; Patient 2, TN Type 1",3 subsequent attacks
same,Clinical Outcome,"[2]; Patient 3, TN Type 1","Relief, no additional"
same,Comment,"[2]; Patient 3, TN Type 1",“So nice to be pain
same,Clinical Outcome,"[2]; Patient 4, TN Type 1","Relief, no additional"
same,Comment,"[2]; Patient 4, TN Type 1",Facial pain gone
same,Comment,"[2]; Patient 5, TN Type 2",Better and continuing
same,Clinical Outcome,"[2]; Patient 6, TN Type 2","Better, can travel"
same,Clinical Outcome,"[2]; Patient 7, TN Type 2","Better, no additional"
same,Comment,"[2]; Patient 7, TN Type 2",“No bother now”
same,overall efficacy on TN pain,[2],demonstrated efficacy; also recorded: significant pain relief
same,overall efficacy on TN pain,[2]; listed as trimeprazine,reduced or relieved
same,"patients with long-term pain relief, no recurrence of symptoms for over 12 months",[2]; subset of TN patients treated with Trimeprazine,two out of seven
same,LogP,[3],4.71
CC[C@@H](C(N)=O)N1CCCC1=O [levetiracetam],improvement,TN [4],50-90%
same,reduction in number of daily attacks,TN [5],62%
CC(C)C[C@H](CN)CC(=O)O [pregabalin],analgesic property relative to gabapentin,PHN,6 times
Botulinum Toxin A [BTX-A],cases in which effective in reducing pain,PHN symptoms,31%
same,cases with significant outcomes,PHN symptoms,46.6%
same,side effects,PHN symptoms,mild
Trimeprazine tartrate,overall efficacy on TN pain,[2],effectiveness in alleviating pain
same,effectiveness on PHN pain,[6],effectiveness in alleviating pain
